Assay results published in patent publication US20180201647A1, “Peptoid” (The University of Durham, priority 2015, published 2018).
Where two headings read alike, the source gives them in different places. Where a SMILES comes first, the peptide text is derived from it. [ ]: non-standard residue; d: D form. Nspe = C[C@H](NCC(=O)O)c1ccccc1; NhArg = N=C(N)NCCCCNCC(=O)O; Nlys = NCCCCNCC(=O)O

Legend:
Format in all cases: cell-based
[1] = tested on: L. donovani strain MHOM/ET/67/L82 axenic amastigotes; settings: for active against L. donovani: statement in words; for IC50: strain MHOM/ET/67/L82 axenic amastigotes, 70 h
Procedure: Amastigotes of L. donovani strain MHOM/ET/67/L82 were grown in axenic culture at 37° C. in SM medium^24 at pH 5.4 supplemented with 10% heat-inactivated fetal bovine serum under an atmosphere of 5% CO2 in air. One hundred microlitres of culture medium with 10^5 amastigotes from axenic culture with or without a serial drug dilution were seeded in 96-well microtitre plates. Serial drug dilutions of eleven 3-fold dilution steps covering a range from 90 to 0.002 μg/ml were prepared. After 70 h of incubation the plates were inspected under an inverted microscope to assure growth of the controls and sterile conditions. 10 μl of Alamar Blue (12.5 mg resazurin dissolved in 100 ml distilled water) were then added to each well and the plates incubated for another 2 h. Then the plates were read with a Spectramax Gemini XS microplate fluorometer (Molecular Devices Cooperation, Sunnyvale, Calif., USA) using an excitation wave length of 536 nm and an emission wave length of 588 nm. Data were analyzed using the software Softmax Pro (Molecular Devices Cooperation, Sunnyvale, Calif., USA). Decrease of fluorescence (=inhibition) was expressed as percentage of the fluorescence of control cultures and plotted against the drug concentrations. From the sigmoidal inhibition curves the IC50 values were calculated.

[2] = tested on: Staphylococcus aureus NCTC 6571
Procedure: (§1) Species used in MIC assays included gram-negative Escherichia coli K12 W3110, Pseudomonas aeruginosa laboratory strain PAO2 and Serratia marcescens laboratory strain and gram-positive Staphylococcus aureus NCTC 6571 and Micrococcus luteus laboratory strain.
(§2) Bacterial cultures were prepared by streaking the bacterial strains on to agar plates with an inoculation loop and incubating overnight at 37° C. A single colony was then selected and placed in 5 mL of Iso-Sensitest broth using an inoculation loop and incubated at 37° C. with shaking overnight.
(§3) MIC values were attained according to the protocol described by J. M. Andrews et al. [J. M. Andrews, J. Antimicrob. Chemother., 2001, 48, 5-16] and were conducted in 96-well microtitre plates in triplicate. 10-50 μL of each overnight culture was inoculated into 1.2 mL of Iso-Sensitest broth and grown at 37° C. with shaking. […] The inoculum was diluted ten-fold with Iso-Sensitest broth before use (to ˜10^3 cfu/spot). Peptide solutions were initially dissolved in DMSO (5 mg mL^−1) and then diluted further with Iso-Sensitest broth to achieve a concentration range of 4 mgL^−1 to 512 mgL^−1 using 2-fold serial dilutions. Samples were vortexed between dilutions where necessary to aid dissolution. 50 μL of inoculum and 50 μL of peptide solution were added to each test well to achieve a final concentration range of 2 mgL^−1 to 256 mgL^−1. Separate dilutions of ampicillin and DMSO were made up in a similar manner to act as a positive antibacterial control and a +DMSO control, respectively. 50 μL of inoculum and 50 μL of Iso-Sensitest broth were used as a positive control and 100 μL of inoculum was used as a negative control. Positive and negatives controls were conducted multiple times in parallel per plate. […] Quantitative data were attained as A650nm values using a BioTek® Synergy™ H4 Hybrid Multi-Mode Microplate Reader.

[3] = tested on: Pseudomonas aeruginosa laboratory strain PAO2
Procedure: as §1, §2, §3

[4] = tested on: Escherichia coli K12 W3110
Procedure: as §1, §2, §3

[5] = tested on: Serratia marcescens laboratory strain; settings: 16 h
Procedure: as §1, §2, §3

[6] = tested on: Leishmania mexicana (M379); settings: for IC50: parasite stage not given, read-out: IC50 L. mexicana; for active against L. mexicana: statement in words
Procedure: Leishmania mexicana (M379) promastigote parasites were maintained at 26° C. in Schneider's Insect medium (Sigma-Aldrich) supplemented with heat-inactivated foetal bovine sera (FBS, 15%; Biosera Ltd). Cells were counted using a Neubauer Improved Haemocytometer. Promastigotes were transformed into axenic amastigotes by a pH and temperature shift as previously described. A culture of recently transformed (three days) promastigotes in the late log phase was transferred into Schneider's Insect medium supplemented with 20% heat-inactivated FBS (pH 5.5) at 5×10^5 parasites/mL. After 6 days, the parasites were in the metacyclic stage and used for transformation to amastigote-like forms by transfer in the same medium at 32° C. at 5×10^5 parasites/mL. After additional 5-7 days, the parasites should be in the amastigote stage and be ready for cytotoxicity studies and infections.
Cytotoxicity analyses were performed in 96-well plates (Costar, Fisher Scientific) using Alamar Blue (Invitrogen) for cell viability detection as previously described.
Promastigote and amastigote L. mexicana were pre-incubated with the compounds in triplicate (5 mM stock solutions in DMSO; Amphotericin B was used as a positive control; untreated parasites with DMSO as a negative control) in 50 μl of the corresponding media at 4×106 mL-1 for 1 hour. Afterwards, 40 μl were removed from each well before the addition of 90 μl of the corresponding media, followed by incubation for 24 hours at 4×105 mL-1. Then, 10 μl Alamar Blue solution (Invitrogen) was added to each well for an incubation of 4 hours prior to assessing cell viability using a fluorescent plate reader (Biotek; Ex 560 nm/Em 600 nm). To investigate the effects of serum on the efficacy of the peptoids, the assay described above was modified using serum-free medium for the pre-incubation time. For these assays, the parasites were washed three times in serum-free medium before adding them to the compound solutions. All of the experiments described above were carried out on a minimum of two separate occasions to ensure a robust data set was collected.

[7] = second figure of cell, 37° C., 16 h, Iso-Sensitest broth
[8] = second figure of cell, 37° C., Iso-Sensitest broth

Row | Structure (SMILES) | active against L. donovani [1] | IC50 [1] | MIC S. aureus ([2]; NCTC 6571, 16 h) | MIC S. aureus [2, 7] | MIC P. aeruginosa ([3]; laboratory strain PAO2, 16 h) | MIC P. aeruginosa [3, 7] | MIC E. coli ([4]; K12, 16 h) | MIC E. coli [4, 7] | MIC S. marcescens ([5]; laboratory strain) | MIC S. marcescens [5, 8] | IC50 [6] | active against L. mexicana [6]
1 | C[C@@H](c1ccccc1)N(CC(N)=O)C(=O)CN(C(=O)CN(CCCCNC(=N)N)C(=O)CN(C(=O)CN(C(=O)CN(CCCCNC(=N)N)C(=O)CN(C(=O)CN(C(=O)CN(CCCCN)C(=O)CN(C(=O)CN(C(=O)CNCCCCN)[C@@H](C)c1ccccc1)[C@@H](C)c1ccccc1)[C@@H](C)c1ccccc1)[C@@H](C)c1ccccc1)[C@@H](C)c1ccccc1)[C@@H](C)c1ccccc1)[C@@H](C)c1ccccc1 [Peptoid 1, (NLys-Nspe-Nspe)2(NhArg-Nspe-Nspe)2] (H-[Nlys][Nspe][Nspe][Nlys][Nspe][Nspe][NhArg][Nspe][Nspe][NhArg][Nspe][Nspe]-NH2; N-terminus assumed) | active | 11.1 µM | 17 µM | 32 mgL^−1 | 34 µM | 64 mgL^−1 | 17 µM | 32 mgL^−1 | 134 µM | 256 mgL^−1 | 37 µM | active
2 | C[C@@H](c1ccccc1)N(CC(N)=O)C(=O)CN(C(=O)CN(CCCCN)C(=O)CN(C(=O)CN(C(=O)CN(CCCCNC(=N)N)C(=O)CN(C(=O)CN(C(=O)CN(CCCCN)C(=O)CN(C(=O)CN(C(=O)CNCCCCNC(=N)N)[C@@H](C)c1ccccc1)[C@@H](C)c1ccccc1)[C@@H](C)c1ccccc1)[C@@H](C)c1ccccc1)[C@@H](C)c1ccccc1)[C@@H](C)c1ccccc1)[C@@H](C)c1ccccc1 [Peptoid 4, [(NhArg-Nspe-Nspe)(NLys-Nspe-Nspe)]2] (H-[NhArg][Nspe][Nspe][Nlys][Nspe][Nspe][NhArg][Nspe][Nspe][Nlys][Nspe][Nspe]-NH2; N-terminus assumed) | active | 19.9 µM | 17 µM | 32 mgL^−1 | 67 µM | 128 mgL^−1 | 17 µM | 32 mgL^−1 | > 134 µM | > 256 mgL^−1 | 37 µM | active
